Test results taken from article PMC4418665, “Cyclization of the Urokinase Receptor-Derived Ser-Arg-Ser-Arg-Tyr Peptide Generates a Potent Inhibitor of Trans-Endothelial Migration of Monocytes” (PLoS ONE, 2015).
Peptide text beside a SMILES is read from it.

Assays:
[1] = biological target: T1, FPR1 (Homo sapiens, UniProt P21462); assay: Ligand binding assay, competition with FITC-fMLF at 4°C, RBL-2H3/ETFR cells; set-up: expressed in transfected cells; conditions: 100 nM peptide pre-incubated 60 min at 4°C, then 10 nM FITC-fMLF 60 min at 4°C; cell-associated fluorescence; triplicates
T1 sequence (P21462 1-350): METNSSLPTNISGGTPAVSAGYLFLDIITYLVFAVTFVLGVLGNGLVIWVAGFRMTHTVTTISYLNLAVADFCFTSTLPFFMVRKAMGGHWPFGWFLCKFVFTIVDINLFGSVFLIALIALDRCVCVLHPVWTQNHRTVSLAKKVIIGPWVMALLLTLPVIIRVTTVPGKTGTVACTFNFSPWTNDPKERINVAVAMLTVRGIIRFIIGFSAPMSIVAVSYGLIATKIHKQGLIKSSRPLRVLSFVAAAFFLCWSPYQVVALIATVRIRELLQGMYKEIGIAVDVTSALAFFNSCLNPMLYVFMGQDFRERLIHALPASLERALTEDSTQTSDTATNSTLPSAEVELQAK
Experimental: We have previously documented that SRSRY competes with the bacterial-derived N-formyl-methionyl-leucyl-phenylalanine peptide (fMLF) for binding to FPR type 1 (FPR1) and that both SRSRY and fMLF promote cell migration by triggering FPR1 internalization. […] Quantification of cell-associated fluorescence was assessed by reading cell lysates with a fluorescence plate reader. RBL-2H3 cells lack FPR1, thus they display very low uptake that was not saturable with unlabeled fMLF (Fig 2A). […] To evaluate the effect of [SRSRY] on agonist-dependent FPR1 internalization, binding experiments were performed at 37°C. […] Thus, we assessed whether [SRSRY] elicits effects on fMLF-directed cell migration. RBL-2H3/ETFR cell migration toward 10 nM fMLF was monitored in real-time for 4 hours as Cell Index changes due to the adhesion of migrating cells to microelectrodes using the xCELLigence RTCA technology as previously described. […]
Fig 2 Both linear and cyclic SRSRY peptides bind to FPR1. […] Fluorimetric measurement of cell-associated fluorescence was assed using 485 nm excitation and 535 nm emission filters. Data are expressed as a percentage of the fluorescence associated to RBL-2H3 cells exposed to FITC-fMLF alone (CTL = 100%) and represent a mean ± SD from triplicates. *Statistical significance (t-test) against None with p<0.001. […] Cell migration of RBL-2H3/ETFR cells monitored by the xCELLigence system. […]

[2] = biological target: T1, FPR1; assay: Ligand binding assay, competition with FITC-fMLF at 4°C, THP-1 cells; set-up: host or cells: THP-1 human monocytic leukemia cells; conditions: excess (100 nM) unlabeled peptide 60 min at 4°C, then 10 nM FITC-fMLF 60 min at 4°C; triplicates
Experimental: Once documented that both SRSRY and [SRSRY] peptides compete with fMLF for binding to FPR1, we investigated the effect of [SRSRY] on the motility of monocytes. Preliminarily, we assessed whether [SRSRY] is a ligand of FPR1 on monocyte cell surface. […] (Fig 3A). When binding experiments were performed at 37°C, FPR1 appeared mainly localized within the cytoplasm, adjacent but outside the nucleus of THP-1 cells.
Fig 3 The peptide [SRSRY] binds to FPR1 on THP-1 cell surface. A. THP-1 cells (1.5 x10^6 cells/sample) were pre-incubated with diluents (None), 100 nM fMLF, 100 nM SRSRY or 100 nM [SRSRY] peptides for 60 minutes at 4°C, then exposed to 10 nM N-formyl-Nle-Leu-Phe-Nle-Tyr-Lys-fluorescein (FITC-fMLF) for additional 60 minutes at 4°C. Fluorimetric measurement of cell-associated fluorescence was assed using 485 nm excitation and 535 nm emission filters. Data are expressed as a percentage of the fluorescence associated to THP-1 cells exposed to FITC-fMLF alone (None = 100%) and represent a mean ± SD from triplicates. *Statistical significance (t-test) against None with p<0.001. B. THP-1 cells incubated with diluents (None), 100 nM fMLF, 100 nM SRSRY or 100 nM [SRSRY] peptides for 30 minutes at 37°C and exposed to 10 nM FITC-fMLF for additional 30 minutes at 37°C. Scale bar: 5 μm. Original magnifications: 630x. […]

Compound | binding of FITC-fMLF to RBL-2H3/ETFR cells [1] | binding of FITC-fMLF to THP-1 cells [2]
N=C(N)NCCC[C@H](NC(=O)[C@H](CO)NC(=O)[C@H](CCCNC(=N)N)NC(=O)[C@@H](N)CO)C(=O)N[C@@H](Cc1ccc(O)cc1)C(N)=O [SRSRY, H-Ser-Arg-Ser-Arg-Tyr-NH2] (H-SRSRY-NH2) | reduced to the basal level | dramatically reduced
N=C(N)NCCC[C@@H]1NC(=O)[C@H](CO)NC(=O)[C@H](Cc2ccc(O)cc2)NC(=O)[C@H](CCCNC(=N)N)NC(=O)[C@H](CO)NC1=O [[SRSRY], [Ser-Arg-Ser-Arg-Tyr]] (cyclo(RSRYS)) | inhibits binding of fluorescent agonist to RBL-2H3/ETFR cells to a similar extent as compared to fMLF or SRSRY | dramatically reduced
